{
  "source": "ChEMBL document CHEMBL6087420",
  "about": "“Synthesis and pharmacodynamic evaluation of 2-aminoindole derivatives against influenza A virus in vitro/vivo” (Eur J Med Chem, 2025)",
  "key": {"Influenza A virus [1]": {"system": "Influenza A virus", "assay": "Inhibition of influenza A virus infection induced apoptosis in MDCK cells infected with influenza virus assessed as late apoptotic cells at 25 uM incubated for 36 hrs by AnnexinV-FITC/PI staining based flow cytometry (reference value: 13.2%)", "assay_type": "functional", "parameters": "scale not given: the % may be the effect or the level left"}, "Influenza A virus [2]": {"system": "Influenza A virus", "assay": "Antiviral activity against influenza A virus infected in A549 cells assessed as decrease in IAV-NP expression pretreated for 48 hrs followed by infected with virus by Western blotting analysis", "assay_type": "functional, organism-based", "details": "dose 25-100 µM"}, "Influenza A virus [3]": {"system": "Influenza A virus", "assay": "Antiviral activity against influenza A virus H1NI (A/Weiss/43) virus infected in dog MDCK cells assessed as viral inhibition treated after 2 hrs of viral infection measured at 72 hrs incubation by MTT assay", "assay_type": "functional"}, "Influenza A virus [4]": {"system": "Influenza A virus", "assay": "Inhibition of influenza A virus infection induced apoptosis in MDCK cells infected with influenza virus assessed as viable cells at 100 uM incubated for 36 hrs by AnnexinV-FITC/PI staining based flow cytometry (reference value: 66.9%)", "assay_type": "functional"}, "Influenza A virus [5]": {"system": "Influenza A virus", "assay": "In vivo antiviral activity against influenza A virus infected in BALB/c mouse assessed as reduction in TNF-alpha mRNA level in lung at 25 to 100 mg/kg measured after 6 dpi", "assay_type": "functional, organism-based", "details": "dose 25-100 mg/kg"}, "Influenza A virus [6]": {"system": "Influenza A virus", "assay": "Inhibition of influenza A virus infection induced apoptosis in MDCK cells infected with influenza virus assessed as viable cells at 50 uM incubated for 36 hrs by AnnexinV-FITC/PI staining based flow cytometry (reference value: 66.9%)", "assay_type": "functional"}, "Influenza A virus [7]": {"system": "Influenza A virus", "assay": "Antiviral activity against influenza A virus H1NI (A/Weiss/43) infected in MDCK cells assessed as reduction in IAV-NP mRNA by qRT-PCR assay", "assay_type": "functional, organism-based"}, "[8]": {"assay": "Toxicity in healthy BALB/c mouse assessed as pathological change in kidney at 25 to 100 mg/kg administered through gavage for 6 days", "assay_type": "organism-based", "details": "in vivo, po, 144 h, dose 25-100 mg/kg, time 6 day"}, "Influenza A virus [9]": {"system": "Influenza A virus", "assay": "In vivo antiviral activity against influenza A virus infected in BALB/c mouse assessed as reduction in IRF3 mRNA level in lung at 25 to 100 mg/kg measured after 6 dpi", "assay_type": "functional, organism-based", "details": "dose 25-100 mg/kg"}, "Influenza A virus [10]": {"system": "Influenza A virus", "assay": "In vivo antiviral activity against influenza A virus infected in BALB/c mouse assessed as reduction in weight loss at 25 to 100 mg/kg", "assay_type": "functional, organism-based", "details": "dose 25-100 mg/kg"}, "Influenza A virus [11]": {"system": "Influenza A virus", "assay": "Inhibition of influenza A virus infection induced apoptosis in MDCK cells infected with influenza virus assessed as late apoptotic cells at 100 uM incubated for 36 hrs by AnnexinV-FITC/PI staining based flow cytometry (reference value: 13.2%)", "assay_type": "functional", "parameters": "scale not given: the % may be the effect or the level left"}, "Influenza A virus [12]": {"system": "Influenza A virus", "assay": "Antiviral activity against influenza A virus H1NI (A/Weiss/43) infected in human A549 cells assessed as reduction in viral titers in supernatants at 0.25 to 100 uM", "assay_type": "functional, organism-based", "details": "dose 0.25-100 µM"}, "Influenza A virus [13]": {"system": "Influenza A virus", "assay": "Antiviral activity against influenza A virus infected in human A549 cells assessed as inhibition of IL-13 expression by qRT-PCR analysis", "assay_type": "functional, organism-based"}, "Influenza A virus [14]": {"system": "Influenza A virus", "assay": "Antiviral activity against influenza A virus H1NI (A/Weiss/43) virus infected in dog MDCK cells assessed as viral inhibition treated after 4 hrs of viral infection measured at 72 hrs incubation by MTT assay", "assay_type": "functional"}, "Influenza A virus [15]": {"system": "Influenza A virus", "assay": "Antiviral activity against influenza A virus infected in A549 cells assessed as decrease in IAV-NP mRNA level measured after 1 to 3 days of viral infection", "assay_type": "functional, organism-based", "details": "time 1-3 day"}, "Influenza A virus [16]": {"system": "Influenza A virus", "assay": "Inhibition of influenza A virus infection induced apoptosis in MDCK cells infected with influenza virus assessed as early apoptotic cells at 100 uM incubated for 36 hrs by AnnexinV-FITC/PI staining based flow cytometry (reference value: 18.2%)", "assay_type": "functional", "parameters": "scale not given: the % may be the effect or the level left"}, "[17]": {"assay": "Toxicity in healthy BALB/c mouse assessed as pathological change in liver at 25 to 100 mg/kg administered through gavage for 6 days", "assay_type": "organism-based", "details": "in vivo, po, 144 h, dose 25-100 mg/kg, time 6 day"}, "Influenza A virus [18]": {"system": "Influenza A virus", "assay": "Inhibition of Hemagglutinin in Influenza A virus"}, "Influenza A virus [19]": {"system": "Influenza A virus", "assay": "Inhibition of influenza A virus infection induced apoptosis in MDCK cells assessed as necrotic cells at 100 uM incubated for 36 hrs by AnnexinV-FITC/PI staining based flow cytometry (reference value: 0.74%)", "assay_type": "functional", "parameters": "scale not given: the % may be the effect or the level left"}, "Influenza A virus [20]": {"system": "Influenza A virus", "assay": "Antiviral activity against influenza A virus infected in human A549 cells assessed as inhibition of IRF3 expression by qRT-PCR analysis", "assay_type": "functional, organism-based"}, "Influenza A virus [21]": {"system": "Influenza A virus", "assay": "In vivo antiviral activity against influenza A virus infected in BALB/c mouse assessed as reduction in apoptotic cells at 25 to 100 mg/kg measured after 6 dpi by TUNEL assay", "assay_type": "functional, organism-based", "details": "dose 25-100 mg/kg"}, "[22]": {"assay": "Cytotoxicity against human A549 cells assessed as toxicity after 72 hrs of incubation by MTT assay", "assay_type": "cell-based"}, "Influenza A virus [23]": {"system": "Influenza A virus", "assay": "Antiviral activity against influenza A virus infected in A549 cells assessed as decrease in IAV-M2 expression pretreated for 48 hrs followed by infected with virus by Western blotting analysis", "assay_type": "functional, organism-based", "details": "dose 25-100 µM"}, "Influenza A virus [24]": {"system": "Influenza A virus", "assay": "Anti-influenza activity against influenza A virus H3N2 (A/California/2014) infected in dog MDCK cells incubated for 72 hrs by MTT assay", "assay_type": "functional, organism-based"}, "[25]": {"assay": "Toxicity in healthy BALB/c mouse assessed as change in blood indicators at 25 to 100 mg/kg administered through gavage for 6 days", "assay_type": "organism-based", "details": "in vivo, po, 144 h, dose 25-100 mg/kg, time 6 day"}, "Influenza A virus [26]": {"system": "Influenza A virus", "assay": "Inhibition of influenza A virus infection induced apoptosis in MDCK cells infected with influenza virus assessed as decrease in Bax incubated for 36 hrs by Western blot analysis", "assay_type": "functional, organism-based"}, "Influenza A virus [27]": {"system": "Influenza A virus", "assay": "Antiviral activity against influenza A virus infected in human A549 cells assessed as inhibition of MAVS expression by qRT-PCR analysis", "assay_type": "functional, organism-based"}, "Influenza A virus [28]": {"system": "Influenza A virus", "assay": "In vivo antiviral activity against influenza A virus infected in BALB/c mouse assessed as reduction in IAV-NP mRNA level in lung at 25 to 100 mg/kg measured after 6 dpi", "assay_type": "functional, organism-based", "details": "dose 25-100 mg/kg"}, "Influenza A virus [29]": {"system": "Influenza A virus", "assay": "Antiviral activity against influenza A virus infected in human A549 cells assessed as inhibition of NF-kappaB protein expression at 25 to 100 uM by Western blot analysis", "assay_type": "functional, organism-based", "details": "dose 25-100 µM"}, "Influenza A virus [30]": {"system": "Influenza A virus", "assay": "In vivo antiviral activity against influenza A virus infected in BALB/c mouse assessed as reduction in OAS1 mRNA level in lung at 25 to 100 mg/kg measured after 6 dpi", "assay_type": "functional, organism-based", "details": "dose 25-100 mg/kg"}, "[31]": {"assay": "Selectivity index, ratio of CC50 for dog MDCK cells to EC50 for antiviral activity against Influenza A virus […] H3N2 (A/California/2014) infected in MDCK cells", "assay_type": "toxicity, cell-based", "details": "read-out: Selectivity Index"}, "[32]": {"assay": "Toxicity in healthy BALB/c mouse assessed as pathological change in heart at 25 to 100 mg/kg administered through gavage for 6 days", "assay_type": "organism-based", "details": "in vivo, po, 144 h, dose 25-100 mg/kg, time 6 day"}, "Influenza A virus [33]": {"system": "Influenza A virus", "assay": "In vivo antiviral activity against influenza A virus infected in BALB/c mouse assessed as decrease in symptoms at 25 to 100 mg/kg", "assay_type": "functional, organism-based", "details": "dose 25-100 mg/kg"}, "Influenza A virus [34]": {"system": "Influenza A virus", "assay": "Inhibition of influenza A virus infection induced apoptosis in MDCK cells infected with influenza virus assessed as early apoptotic cells at 25 uM incubated for 36 hrs by AnnexinV-FITC/PI staining based flow cytometry (reference value: 18.2%)", "assay_type": "functional", "parameters": "scale not given: the % may be the effect or the level left"}, "Influenza A virus [35]": {"system": "Influenza A virus", "assay": "Inhibition of influenza A virus infection induced apoptosis in MDCK cells infected with influenza virus assessed as necrotic cells at 50 uM incubated for 36 hrs by AnnexinV-FITC/PI staining based flow cytometry (reference value: 1.79%)", "assay_type": "functional", "parameters": "scale not given: the % may be the effect or the level left"}},
  "note": "Activity calls are given as the source filed them. No cut-off for these calls is given here.",
  "data": [
    {"smiles": "COc1ccc2c(c1)c(-c1ccccc1)c(NS(C)(=O)=O)n2S(=O)(=O)c1ccc(C)cc1", "values": [
      {"measurement": "Activity", "setting": "Influenza A virus [1]", "value": 9.29, "unit": "%"},
      {"measurement": "Activity", "setting": "Influenza A virus [2]", "value": "Dose-dependent-effect"},
      {"measurement": "inhibition (INH)", "setting": "Influenza A virus [3]", "value": 87.37, "unit": "%"},
      {"measurement": "Activity", "setting": "Influenza A virus [4]", "value": 92.8, "unit": "%"},
      {"measurement": "Activity", "setting": "Influenza A virus [5]", "value": "Active"},
      {"measurement": "Activity", "setting": "Influenza A virus [6]", "value": 85.5, "unit": "%"},
      {"measurement": "Activity", "setting": "Influenza A virus [7]", "value": "Active"},
      {"measurement": "Activity", "setting": "[8]", "value": "Non-toxic"},
      {"measurement": "Activity", "setting": "Influenza A virus [9]", "value": "Active"},
      {"measurement": "Activity", "setting": "Influenza A virus [10]", "value": "inactive"},
      {"measurement": "Activity", "setting": "Influenza A virus [11]", "value": 1.62, "unit": "%"},
      {"measurement": "Activity", "setting": "Influenza A virus [12]", "value": "Active"},
      {"measurement": "Activity", "setting": "Influenza A virus [13]", "value": "Active"},
      {"measurement": "inhibition (INH)", "setting": "Influenza A virus [14]", "value": 85.3, "unit": "%"},
      {"measurement": "Activity", "setting": "Influenza A virus [15]", "value": "Active"},
      {"measurement": "Activity", "setting": "Influenza A virus [16]", "value": 3.6, "unit": "%"},
      {"measurement": "Activity", "setting": "[17]", "value": "Non-toxic"},
      {"measurement": "inhibition", "setting": "Influenza A virus [18]", "value": "inactive"},
      {"measurement": "Activity", "setting": "Influenza A virus [19]", "value": 1.78, "unit": "%"},
      {"measurement": "Activity", "setting": "Influenza A virus [20]", "value": "Active"},
      {"measurement": "Activity", "setting": "Influenza A virus [21]", "value": "Active"},
      {"measurement": "CC50 at 72 h", "setting": "[22]", "value": 632, "unit": "µM"},
      {"measurement": "Activity", "setting": "Influenza A virus [23]", "value": "Dose-dependent-effect"},
      {"measurement": "EC50", "setting": "Influenza A virus [24]", "value": 18.3, "unit": "µM"},
      {"measurement": "Activity", "setting": "[25]", "value": "Non-toxic"},
      {"measurement": "Activity", "setting": "Influenza A virus [26]", "value": "Active"},
      {"measurement": "Activity", "setting": "Influenza A virus [27]", "value": "Active"},
      {"measurement": "Activity", "setting": "Influenza A virus [28]", "value": "Active"},
      {"measurement": "Activity", "setting": "Influenza A virus [29]", "value": "Active"},
      {"measurement": "Activity", "setting": "Influenza A virus [30]", "value": "Active"},
      {"measurement": "selectivity ratio", "setting": "[31]", "value": 36.5},
      {"measurement": "Activity", "setting": "[32]", "value": "Non-toxic"},
      {"measurement": "Activity", "setting": "Influenza A virus [33]", "value": "Active; Alleviate Following Symptoms - Symptoms Of Severe Malaise, Respiratory Distress, Asthma, Messy Coat, Hunched Back, And Loss Of Appetite To Certain Extent"},
      {"measurement": "Activity", "setting": "Influenza A virus [34]", "value": 17.6, "unit": "%"},
      {"measurement": "Activity", "setting": "Influenza A virus [35]", "value": 1.25, "unit": "%"}
    ]}
  ]
}
